The values below come from patent US12448383B2, “Compounds and methods for treatment of viral infections” (priority 2022, dated 2025).

SMILES strings stand for the structures.

Data set [1] has as its system SARS Coronavirus 2 recombinant with NanoLuc (SARS-CoV2-NLuc) in A549-hACE2 cells. Kind of data set: organism not typed. Type of data set: cell-based. Conditions: 48 h; read-out: SARS-CoV2 EC50.
A short description of data set [2]: Plasma stability. Format: in vitro ADME. Set-up: unit not given here. Conditions: 37° C., 2 μM substrate. The method in brief: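 LC-MS (Q-Exactive, 5 ppm tolerance, 0.1% formic acid water/acetonitrile gradient) quantified compound in quenched aliquots. Aliquots were taken at 0.05, 0.5, 1, 2, 3 and 4 hr and quenched with internal-standard solution, and supernatants were diluted with water after centrifugation.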

Data set [3] can be described thus: CC50 MT4 cytotoxicity (Cell-Titer Glo). As to conditions: human. Type of data set: cell-based. An outline of the steps:
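CC50 values are the concentrations cutting viability by 50%, fitted by non-linear regression against untreated (100%) and 2 μM puromycin (0%) controls. Cell-Titer Glo luminescence measured after 4-5 days at 37° C exposure of uninfected MT-4 and HEp-2 cells to 3-fold dilutions spanning 15 nM to 100,000 nM.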

Data set [4] can be described thus: GI S9 stability - no PMSF. Format: in vitro ADME. Conditions: pH 7.4; human intestinal S9, PMSF-free; read-out: GIS9-HUMAN-NoPMSF T1/2. An outline of the steps:
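Stability was assessed by Q-Exactive LC-MS peak area ratios against internal standard, tracking loss of parent and appearance of nucleoside metabolite Reference Compound A. Incubations used 2 μM compound in 1 mg/mL intestinal S9 without PMSF (PBS, pH 7.4), with six samples taken over 120 min.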

The subject of data set [5] is Respiratory syncytial virus recombinant with luciferase (RSV-Luc5) in HEp-2 cells. The data set can be described thus: microbe, parasite or virus in culture. Type of data set: cell-based. As to conditions: human respiratory syncytial virus, HEp-2, 72 h, read-out: RSV Hep2 EC50.
The test system of data set [6] is Respiratory syncytial virus recombinant with luciferase (RSV-Luc5) in Normal Human Bronchial Epithelial (NHBE) cells. Kind of data set: microbe, parasite or virus in culture. Conditions: 72 h, read-out: RSV NHBE EC50. Type of data set: cell-based.
Data set [7] relates to Caco-2 cells (clone C2BBe1). The data set can be described thus: CACO-2 permeability. Format: in vitro ADME. Conditions: for DM Caco2 A to B: apical to basolateral, donor pH 6.5, receiver pH 7.4; for DM Caco2 B to A: basolateral to apical. Also on record: unit not given here. An outline of the steps:
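A-to-B and B-to-A flux measured by LC-MS/MS from receiver samples taken at 1 and 2 h, with donor sampled at 0 and 2 h and recovery checked. Buffers: pH 6.5 HBSS with 200 μM BNPP on the donor side, pH 7.4 with BSA on the receiver side. Monolayers were 21-day cultures, TEER-verified, in duplicate wells.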
For orientation: Caco-2 cells form a polarised layer with tight junctions and transporters.

Usually EC50 stands for the concentration giving half of the maximal effect. As a reminder, the CC50 is the concentration that lowers cell viability or growth by half. As to `N#C[C@@]1(c2ccc3c(N)ncnn23)O[C@H](COC(=O)OC2CCOCC2)[C@@H](O)[C@H]1O` [Compound 50, ((2R,3S,4R,5R)-5-(4-aminopyrrolo[2,1-f][1,2,4]triazin-7-yl)-5-cyano-3,4-dihydroxytetrahydrofuran-2-yl)methyl (tetrahydro-2H-pyran-4-yl) carbonate], the figures for the half-maximal effective concentration (EC50) in data set [1], in data set [5] and in data set [6] were 20400 nM, 1920 nM and 1370 nM, respectively. The “STA Human Plasma 37” value in data set [2] was 430.4. The same molecule registered a cytotoxic concentration (CC50) in data set [3] of over 50000 nM. For the same molecule, the half-life at 2 µM in data set [4] stood at 15.2 min. The “DM Caco2 A to B” value in data set [7] was 0.13. In addition, the “DM Caco2 B to A” value in data set [7] stood at 2.76.
As for `CCC(C)(CC)OC(=O)OC[C@H]1O[C@@](C#N)(c2ccc3c(N)ncnn23)[C@H](O)[C@@H]1O` [Compound 69, ((2R,3S,4R,5R)-5-(4-aminopyrrolo[2,1-f][1,2,4]triazin-7-yl)-5-cyano-3,4-dihydroaytetrahydrofuran-2-yl)methyl (3-methylpentan-3-yl) carbonate], the results for the EC50 in data set [1], in data set [5] and in data set [6] were 2830 nM, 1050 nM and 988 nM, respectively. The “STA Human Plasma 37” value in data set [2] was found to be 294.49. The cytotoxic concentration (CC50) in data set [3] was over 50000 nM. Besides, the half-life at 2 µM in data set [4] stood at 48.7 min. Further, the “DM Caco2 A to B” value in data set [7] is listed as 1. In data set [7], the “DM Caco2 B to A” value came to 4.74.
For `CC1(C)CC(OC(=O)OC[C@H]2O[C@@](C#N)(c3ccc4c(N)ncnn34)[C@H](O)[C@@H]2O)C1` [Compound 31, ((2R,3S,4R,5R)-5-(4-aminopyrrolo[2,1-f][1,2,4]triazin-7-yl)-5-cyano-3,4-dihydroxytetrahydrofuran-2-yl)methyl (3,3-dimethylcyclobutyl) carbonate], the results for the concentration for a half-maximal effect (EC50) in data set [1], in data set [5] and in data set [6] were 1080 nM, 322 nM and 803 nM, respectively. Besides, the “STA Human Plasma 37” value in data set [2] turned out to be 32.4. This molecule returned a half-maximal cytotoxic concentration (CC50) in data set [3] of over 50000 nM. Moreover, the half-life at 2 µM in data set [4] turned out to be 0.857 min. The “DM Caco2 A to B” value in data set [7] is on record as 0.68. Besides, the “DM Caco2 B to A” value in data set [7] is recorded as 13.
`N#C[C@@]1(c2ccc3c(N)ncnn23)O[C@H](COC(=O)OCC2CCC2)[C@@H](O)[C@H]1O` [Compound 53, ((2R,3S,4R,5R)-5-(4-aminopyrrolo[2,1-f][1,2,4]triazin-7-yl)-5-cyano-3,4-dihydroxytetrahydrofuran-2-yl)methyl (cyclobutylmethyl) carbonate]: the concentration for a half-maximal effect (EC50) in data set [1] worked out at 662 nM; in data set [5], 98 nM; in data set [6], 833 nM. Further, the “STA Human Plasma 37” value in data set [2] is 13. The 50% cytotoxic concentration (CC50) in data set [3] was over 50000 nM. In data set [4], the half-life at 2 µM was determined as 0.636 min. In data set [7], the “DM Caco2 A to B” value was 2.34. Besides, the “DM Caco2 B to A” value in data set [7] is 10.58.
As to `CCC(C)(C)OC(=O)OC[C@H]1O[C@@](C#N)(c2ccc3c(N)ncnn23)[C@H](O)[C@@H]1O` [Compound 70, ((2R,3S,4R,5R)-5-(4-aminopyrrolo[2,1-f][1,2,4]triazin-7-yl)-5-cyano-3,4-dihydroxytetrahydrofuran-2-yl)methyl tert-pentyl carbonate], the values for the EC50 in data set [1], in data set [5] and in data set [6] were 2810 nM, 1720 nM and 2180 nM, respectively. The “STA Human Plasma 37” value in data set [2] amounted to 1399.3. Also, the CC50 in data set [3] was over 50000 nM. The half-life at 2 µM in data set [4] came out at 73 min. The “DM Caco2 A to B” value in data set [7] amounted to 0.88. In addition, the “DM Caco2 B to A” value in data set [7] is 6.91.
On to `CC1(OC(=O)OC[C@H]2O[C@@](C#N)(c3ccc4c(N)ncnn34)[C@H](O)[C@@H]2O)CCCC1` [Compound 56, ((2R,3S,4R,5R)-5-(4-aminopyrrolo[2,1-f][1,2,4]triazin-7-yl)-5-cyano-3,4-dihydroxytetrahydrofuran-2-yl)methyl (1-methylcyclopentyl) carbonate], for which the EC50 in data set [1] was 2520 nM; in data set [5], 1260 nM; in data set [6], 1210 nM. Besides, the “STA Human Plasma 37” value in data set [2] is 77.644. This molecule also showed a 50% cytotoxic concentration (CC50) in data set [3] of over 50000 nM. Further, the half-life at 2 µM in data set [4] was 16.5 min. In data set [7], the “DM Caco2 A to B” value came out at 0.35. In addition, the “DM Caco2 B to A” value in data set [7] is reported as 1.83.
Regarding `C[C@H](OC(=O)OC[C@H]1O[C@@](C#N)(c2ccc3c(N)ncnn23)[C@H](O)[C@@H]1O)c1ccccc1` [Compound 88, ((2R,3S,4R,5R)-5-(4-aminopyrrolo[2,1-f][1,2,4]triazin-7-yl)-5-cyano-3,4-dihydroxytetrahydrofuran-2-yl)methyl ((S)-1-phenylethyl) carbonate], the values for the EC50 in data set [1], in data set [5] and in data set [6] were 1630 nM, 382 nM and 70.2 nM, respectively. In addition, in data set [2], the “STA Human Plasma 37” value is 1584. For the same molecule, the 50% cytotoxic concentration (CC50) in data set [3] is over 50000 nM. In data set [4], the half-life at 2 µM was found to be 4.91 min. Also, in data set [7], the “DM Caco2 A to B” value was 2.72. Besides, the “DM Caco2 B to A” value in data set [7] is recorded as 12.82.
As for `N#C[C@@]1(c2ccc3c(N)ncnn23)O[C@H](COC(=O)OCC23CC(C2)C3)[C@@H](O)[C@H]1O` [Compound 72, ((2R,3S,4R,5R)-5-(4-aminopyrrolo[2,1-f][1,2,4]triazin-7-yl)-5-cyano-3,4-dihydroxytetrahydrofuran-2-yl)methyl (bicyclo[1.1.1]pentan-1-ylmethyl) carbonate], the figures for the EC50 in data set [1], in data set [5] and in data set [6] were 1130 nM, 779 nM and 1820 nM, respectively. Further, the “STA Human Plasma 37” value in data set [2] was 31.1. The CC50 in data set [3] is over 50000 nM. The half-life at 2 µM in data set [4] was 0.623 min. Also, in data set [7], the “DM Caco2 A to B” value is 2.52. In addition, the “DM Caco2 B to A” value in data set [7] was determined as 10.69.
Regarding `N#C[C@@]1(c2ccc3c(N)ncnn23)O[C@H](COC(=O)OCc2ncccn2)[C@@H](O)[C@H]1O` [Compound 91, ((2R,3S,4R,5R)-5-(4-aminopyrrolo[2,1-f][1,2,4]triazin-7-yl)-5-cyano-3,4-dihydroxytetrahydrofuran-2-yl)methyl (pyrimidin-2-ylmethyl) carbonate], the concentration giving a half-maximal response (EC50) in data set [1] was 14700 nM; in data set [5], 3640 nM; in data set [6], 5840 nM. Besides, the “STA Human Plasma 37” value in data set [2] worked out at 285. The molecule also gave a CC50 in data set [3] of over 50000 nM. Moreover, the half-life at 2 µM in data set [4] came out at 42 min. In addition, the “DM Caco2 A to B” value in data set [7] is 0.02. Besides, the “DM Caco2 B to A” value in data set [7] is recorded as 0.5.
In the case of `N#C[C@@]1(c2ccc3c(N)ncnn23)O[C@H](COC(=O)OC2CCCCC2)[C@@H](O)[C@H]1O` [Compound 35, ((2R,3S,4R,5R)-5-(4-aminopyrrolo[2,1-f][1,2,4]triazin-7-yl)-5-cyano-3,4-dihydroxytetrahydrofuran-2-yl)methyl cyclohexyl carbonate], the values for the EC50 in data set [1], in data set [5] and in data set [6] were 1910 nM, 651 nM and 1010 nM, respectively. The “STA Human Plasma 37” value in data set [2] worked out at 139.6. Besides, in data set [3], the half-maximal cytotoxic concentration (CC50) was over 50000 nM. The half-life at 2 µM in data set [4] amounted to 0.593 min. In addition, the “DM Caco2 A to B” value in data set [7] came to 0.95. For the same molecule, in data set [7], the “DM Caco2 B to A” value came out at 10.64.
For `CC[C@H](C)OC(=O)OC[C@H]1O[C@@](C#N)(c2ccc3c(N)ncnn23)[C@H](O)[C@@H]1O` [Compound 90, ((2R,3S,4R,5R)-5-(4-aminopyrrolo[2,1-f][1,2,4]triazin-7-yl)-5-cyano-3,4-dihydroxytetrahydrofuran-2-yl)methyl ((S)-sec-butyl) carbonate], the figures for the EC50 in data set [1], in data set [5] and in data set [6] were 1840 nM, 249 nM and 180 nM, respectively. For the same molecule, the “STA Human Plasma 37” value in data set [2] worked out at 169.9. The molecule also displayed a half-maximal cytotoxic concentration (CC50) in data set [3] of over 50000 nM. For the same molecule, the half-life at 2 µM in data set [4] is 0.591 min. For the same molecule, the “DM Caco2 A to B” value in data set [7] is reported as 0.9. Moreover, the “DM Caco2 B to A” value in data set [7] is 7.41.
With `Cc1oc(=O)oc1COC(=O)OC[C@H]1O[C@@](C#N)(c2ccc3c(N)ncnn23)[C@H](O)[C@@H]1O` [Compound 26, ((2R,3S,4R,5R)-5-(4-aminopyrrolo[2,1-f][1,2,4]triazin-7-yl)-5-cyano-3,4-dihydroxytetrahydrofuran-2-yl)methyl ((5-methyl-2-oxo-1,3-dioxol-4-yl)methyl) carbonate], the 50% effective concentration (EC50) in data set [1] stood at 2390 nM; in data set [5], 942 nM; in data set [6], 844 nM. Moreover, the “STA Human Plasma 37” value in data set [2] turned out to be 33.7. Besides, the cytotoxic concentration (CC50) in data set [3] is over 50000 nM. In addition, the half-life at 2 µM in data set [4] was determined as 0.487 min. Moreover, the “DM Caco2 A to B” value in data set [7] was 0.07. In addition, the “DM Caco2 B to A” value in data set [7] is 0.36.
